# Test results reported in patent US6514971B1, “Cinnoline derivatives and use as medicine” (Zeneca Limited, priority 1996, dated 2003).
# Structures can show the parent of a compound that is named as a salt.
# How the values were obtained:
# [1] = target: T1, epidermal growth factor (EGF) receptor tyrosine kinase (Homo sapiens, UniProt P00533); assay: In vitro receptor tyrosine kinase inhibition test (EGF receptor); type: biochemical
# T1 construct: made in house; host or cells: insect cells (baculovirus, as for Flt)
# T1 sequence (P00533 669-1210 limits assumed): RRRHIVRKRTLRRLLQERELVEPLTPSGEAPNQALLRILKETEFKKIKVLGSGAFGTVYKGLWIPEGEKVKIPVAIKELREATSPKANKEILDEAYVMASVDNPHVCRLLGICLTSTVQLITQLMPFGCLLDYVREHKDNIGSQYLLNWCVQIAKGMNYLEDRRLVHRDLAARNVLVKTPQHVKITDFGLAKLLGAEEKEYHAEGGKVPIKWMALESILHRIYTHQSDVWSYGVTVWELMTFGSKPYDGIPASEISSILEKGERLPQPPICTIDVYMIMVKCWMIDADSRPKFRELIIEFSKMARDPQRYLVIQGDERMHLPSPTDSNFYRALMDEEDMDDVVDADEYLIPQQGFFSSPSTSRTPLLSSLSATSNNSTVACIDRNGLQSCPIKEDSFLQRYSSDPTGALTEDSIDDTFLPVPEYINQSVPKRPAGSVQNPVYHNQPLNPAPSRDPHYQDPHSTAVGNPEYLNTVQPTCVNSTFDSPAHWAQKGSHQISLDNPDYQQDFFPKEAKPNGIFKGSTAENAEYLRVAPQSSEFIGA
# Source text: (§1) (a) In Vitro Receptor Tyrosine Kinase Inhibition Test
# This assay determines the ability of a test compound to inhibit tyrosine kinase activity. DNA encoding VEGF or epidermal growth factor (EGF) receptor cytoplasmic domains may be obtained by total gene synthesis (Edwards M, International Biotechnology Lab 5(3), 19-25, 1987) or by cloning. These may then be expressed in a suitable expression system to obtain polypeptide with tyrosine kinase activity. […] In the case of the VEGF receptor Flt (Genbank accession number X51602), a 1.7 kb DNA fragment encoding most of the cytoplasmic domain, commencing with methionine 783 and including the termination codon, described by Shibuya et al (Oncogene, 1990, 5: 519-524), was isolated from cDNA and cloned into a baculovirus transplacement vector (for example pAcYM1 (see The Baculovirus Expression System: A Laboratory Guide, L. A. King and R. D. Possee, Chapman and Hall, 1992) or pAc360 or pBlueBacHis (available from Invitrogen Corporation)). This recombinant construct was co-transfected into insect cells (for example Spodoptera frugiperda 21 (Sf21)) with viral DNA (eg Pharmingen BaculoGold) to prepare recombinant baculovirus. (Details of the methods for the assembly of recombinant DNA molecules and the preparation and use of recombinant baculovirus can be found in standard texts for example Sambrook et al, 1989. Molecular cloning—A Laboratory Manual, 2nd edition, Cold Spring Harbour Laboratory Press and O'Reilly et al, 1992, Baculovirus Expression Vectors—A Laboratory Manual. W. H. Freeman and Co. New York). For other tyrosine kinases for use in assays, cytoplasmic fragments starting from methionine 806 (KDR, Genbank accession number L04947) and methionine 668 (EGF receptor, Genbank accession number X00588) may be cloned and expressed in a similar manner.
# For expression of cFlt tyrosine kinase activity, Sf21 cells were infected with plaque-pure cFlt recombinant virus at a multiplicity of infection of 3 and harvested 48 hours later. Harvested cells were washed with ice cold phosphate buffered saline solution (PBS) (10 mM sodium phosphate pH7.4, 138 mM NaCl, 2.7 mM KCl) then resuspended in ice cold HNTG/PMSF (20 mM Hepes pH7.5, 150 mM NaCl, 10% v/v glycerol, 1% v/v Triton X100. 1.5 mM MgCl2, 1 mM ethylene glycol-bis(βaminoethyl ether) N,N,N′,N′-tetraacetic acid (EGTA), 1 mM PMSF (phenylmethylsulphonyl fluoride); the PMSF is added just before use from a freshly-prepared 100 mM solution in methanol) using 1 ml HNTG/PMSF per 10 million cells. The suspension was centrifuged for 10 minutes at 13.000 rpm at 4° C., the supernatant (enzyme stock) was removed and stored in aliquots at −70° C. Each new batch of stock enzyme was titrated in the assay by dilution with enzyme diluent (100 mM Hepes pH 7.4, 0.2 mM Na3VO4, 0.1% v/v Triton X100, 0.2 mM dithiothreitol). For a typical batch, stock enzyme is diluted 1 in 2000 with enzyme diluent and 50 μl of dilute enzyme is used for each assay well.
# (§2) A stock of substrate solution was prepared from a random copolymer containing tyrosine, for example Poly (Glu, Ala, Tyr) 6:3:1 (Sigma P3899), stored as 1 mg/ml stock in PBS at −20° C. and diluted 1 in 500 with PBS for plate coating.
# (§3) On the day before the assay 100 μl of diluted substrate solution was dispensed into all wells of assay plates (Nunc maxisorp 96-well immunoplates) which were sealed and left overnight at 4° C.
# (§4) On the day of the assay the substrate solution was discarded and the assay plate wells were washed once with PBST (PBS containing 0.05% v/v Tween 20) and once with 50 mM Hepes pH7.4.
# Test compounds were diluted with 10% dimethylsulphoxide (DMSO) and 25 μl of diluted compound was transferred to wells in the washed assay plates. “Total” control wells contained 10% DMSO instead of compound. Twenty five microliters of 40 mM MnCl2 containing 8 μM adenosine-5′-triphosphate (ATP) was added to all test wells except “blank” control wells which contained MnCl2 without ATP. […]
# [2] = target: T2, VEGF receptor tyrosine kinase (Homo sapiens, UniProt P17948); assay: In vitro receptor tyrosine kinase inhibition test (VEGF receptor); type: biochemical
# T2 construct: encoding most of the cytoplasmic domain, commencing with methionine 783 and including the termination codon; made in house; host or cells: Spodoptera frugiperda Sf21 insect cells (baculovirus); cleared Triton X100 lysate used as enzyme stock
# T2 sequence (P17948 781-1338 limits assumed): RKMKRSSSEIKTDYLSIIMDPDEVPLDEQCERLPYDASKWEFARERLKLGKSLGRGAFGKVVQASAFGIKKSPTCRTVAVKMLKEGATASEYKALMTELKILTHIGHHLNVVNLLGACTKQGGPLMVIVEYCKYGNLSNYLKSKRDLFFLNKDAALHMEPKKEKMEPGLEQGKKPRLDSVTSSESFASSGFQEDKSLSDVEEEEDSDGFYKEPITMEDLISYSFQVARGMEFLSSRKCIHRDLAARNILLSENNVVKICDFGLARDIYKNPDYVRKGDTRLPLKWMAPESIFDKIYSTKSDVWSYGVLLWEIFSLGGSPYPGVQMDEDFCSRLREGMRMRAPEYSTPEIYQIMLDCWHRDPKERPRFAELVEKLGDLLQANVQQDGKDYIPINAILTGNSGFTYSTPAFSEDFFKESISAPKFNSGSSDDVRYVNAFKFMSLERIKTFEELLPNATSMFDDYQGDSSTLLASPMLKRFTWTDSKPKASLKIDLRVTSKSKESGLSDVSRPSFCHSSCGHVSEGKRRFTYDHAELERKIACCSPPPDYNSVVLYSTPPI
# Source text: as §1
# This assay determines the ability of a test compound to inhibit tyrosine kinase activity. […] These may then be expressed in a suitable expression system to obtain polypeptide with tyrosine kinase activity. […] This recombinant construct was co-transfected into insect cells (for example Spodoptera frugiperda 21 (Sf21)) with viral DNA (eg Pharmingen BaculoGold) to prepare recombinant baculovirus.
# For expression of cFlt tyrosine kinase activity, Sf21 cells were infected with plaque-pure cFlt recombinant virus at a multiplicity of infection of 3 and harvested 48 hours later. […] The suspension was centrifuged for 10 minutes at 13.000 rpm at 4° C., the supernatant (enzyme stock) was removed and stored in aliquots at −70° C. Each new batch of stock enzyme was titrated in the assay by dilution with enzyme diluent (100 mM Hepes pH 7.4, 0.2 mM Na3VO4, 0.1% v/v Triton X100, 0.2 mM dithiothreitol). For a typical batch, stock enzyme is diluted 1 in 2000 with enzyme diluent and 50 μl of dilute enzyme is used for each assay well.
# as §2, §3, §4
# Test compounds were diluted with 10% dimethylsulphoxide (DMSO) and 25 μl of diluted compound was transferred to wells in the washed assay plates. “Total” control wells contained 10% DMSO instead of compound. Twenty five microliters of 40 mM MnCl2 containing 8 μM adenosine-5′-triphosphate (ATP) was added to all test wells except “blank” control wells which contained MnCl2 without ATP. To start the reactions 50 μl of freshly diluted enzyme was added to each well and the plates were incubated at room temperature for 20 minutes. The liquid was then discarded and the wells were washed twice with PBST. […] Plates were then incubated for 20-60 minutes at room temperature until the optical density value of the “total” control wells, measured at 405 nm using a plate reading spectrophotometer, was approximately 1.0.
SMILES,melting point [°C],activity against epidermal growth factor (EGF) receptor tyrosine kinase [1],activity against VEGF receptor tyrosine kinase [2]
COc1cc2c(Nc3cc(O)c(C)cc3F)cnnc2cc1OCc1nccn1C.Cl,215 to 221,,
COc1cc2c(Nc3cc(O)c(C)cc3F)cnnc2cc1OCc1ccncc1.Cl,244 to 252,,
"COc1cc2c(Nc3cc(O)c(Cl)cc3F)cnnc2cc1OCc1ccccc1 (as salt: hydrochloride) [Example 6, 7-benzyloxy-4-(4-chloro-2-fluoro-5-hydroxyanilino)-6-methoxycinnoline]",280 to 284,,
"COc1cc2c(Nc3cc(OC(C)=O)c(Cl)cc3F)cnnc2cc1OCc1ccccc1 (as salt: hydrochloride) [Example 7, 4-(5-acetoxy-4-chloro-2-fluoroanilino)-7-benzyloxy-6-methoxycinnoline]",240 to 247,,
"COc1cc2c(Nc3cc(O)c(Cl)cc3F)cnnc2cc1OCc1ccncc1 (as salt: hydrochloride) [Example 10, 4-(4-chloro-2-fluoro-5-hydroxyanilino)-6-methoxy-7-(4-pyridylmethoxy)cinnoline]",243 to 251,,
"COc1cc2c(Nc3cc(O)c(Cl)cc3F)cnnc2cc1OCCCN1CCOCC1 (as salt: hydrochloride) [Example 12, 4-(4-chloro-2-fluoro-5-hydroxyanilino)-6-methoxy-7-(3-morpholinopropoxy)cinnoline]",218 to 225,,
"COc1cc2c(Nc3cc(O)c(Cl)cc3F)cnnc2cc1OCCCN1CCCC1 (as salt: hydrochloride) [Example 13, 4-(4-chloro-2-fluoro-5-hydroxyanilino)-6-methoxy-7-(3-pyrrolidinopropoxy)cinnoline]",240 to 245,,
"COc1ccc2c(Nc3ccc(C)c(O)c3)cnnc2c1 (as salt: hydrochloride) [Example 14, 4-(3-hydroxy-4-methylanilino)-7-methoxycinnoline]",270 to 275,,
"COc1cc2nncc(Nc3cc(O)c(Cl)cc3F)c2cc1OC (as salt: hydrochloride) [Example 22, 4-(4-chloro-2-fluoro-5-hydroxyanilino)-6,7-dimethoxycinnoline]",255 to 256,,
COc1cc2c(Nc3cc(O)c(C)cc3F)cnnc2cc1OCc1nccn1C [4-(2-fluoro-5-hydroxy-4-methylanilino)-6-methoxy-7-[(1-methylimidazol-2-yl)methoxy]cinnoline],,lack of significant activity,good activity
"COc1cc2nncc(Nc3ccc(C)c(O)c3)c2cc1OC [Example 1, 4-(3-hydroxy-4-methylanilino)-6,7-dimethoxycinnoline]",240 to 244,,

# The remaining lines, values ahead:
melting point [°C],activity against epidermal growth factor (EGF) receptor tyrosine kinase [1],activity against VEGF receptor tyrosine kinase [2],SMILES
278 to 281,,,"COCCOc1cc2nncc(Nc3ccc(Br)cc3F)c2cc1OC (as salt: hydrochloride) [Example 5, 4-(4-bromo-2-fluoroanilino)-6-methoxy-7-(2-methoxyethoxy)cinnoline]"
283 to 290,,,"COCCOc1cc2nncc(Nc3cc(O)c(C)cc3F)c2cc1OC (as salt: hydrochloride) [Example 11, 4-(2-fluoro-5-hydroxy-4-methylanilino)-6-methoxy-7-(2-methoxyethoxy)cinnoline]"
251 to 253,,,"COc1cc2nncc(Nc3cc(O)c(C)cc3F)c2cc1OC (as salt: hydrochloride) [Example 21, 4-(2-fluoro-5-hydroxy-4-methylanilino)-6,7-dimethoxycinnoline]"
250 to 256,,,"COCCOCCOc1cc2nncc(Nc3cc(O)c(C)cc3F)c2cc1OC (as salt: hydrochloride) [Example 23, 4-(2-fluoro-5-hydroxy-4-methylanilino)-6-methoxy-7-[2-(2-methoxyethoxy)ethoxy]cinnoline]"
,lack of significant activity,good activity,COCCOc1cc2nncc(Nc3cc(O)c(C)cc3F)c2cc1OC [4-(2-fluoro-5-hydroxy-4-methylanilino)-6-methoxy-7-(2-methoxyethoxy)cinnoline]
,lack of significant activity,good activity,COc1cc2c(Nc3cc(O)c(C)cc3F)cnnc2cc1OCc1csc(C)n1 [4-(2-fluoro-5-hydroxy-4-methylanilino)-6-methoxy-7-[(2-methylthiazol-4-yl)methoxy]cinnoline]
,lack of significant activity,good activity,"COCCOc1cc2nncc(Nc3cc(O)c(Cl)cc3F)c2cc1OC [Example 8, 4-(4-chloro-2-fluoro-5-hydroxyanilino)-6-methoxy-7-(2-methoxyethoxy)cinnoline]"
,lack of significant activity,good activity,"COCCOc1cc2nncc(Nc3cc(O)c(Br)cc3F)c2cc1OC [Example 9, 4-(4-bromo-2-fluoro-5-hydroxyanihno)-6-methoxy-7-(2-methoxyethoxy)cinnoline]"
267 to 273,,,"COCCOc1cc2nncc(Oc3cc(O)c(C)cc3F)c2cc1OC [Example 20, 4-(2-fluoro-5-hydroxy-4-methylphenoxy)-6-methoxy-7-(2-methoxyethoxy)cinnoline]"
